The record followed here is patent US10004701B2, “Methods and compositions for treating infection” (UNIVERSITY OF ROCHESTER, priority 2012, dated 2018).

Where a name gives a salt, the structure may show the parent alone. Read-outs that look alike come from different tables or passages of the source.

What all share (assay): AK assay 384-well format, Prestwick library screening
Assay [1] concerns S. aureus strain USA300-0114. Format: cell-based, Staphylococcus aureus. The note with it: Staphylococcus aureus, USA300, 3 h, 50 μM final drug concentration.
The subject of a further assay is K. pneumoniae. Format: cell-based, Klebsiella pneumoniae. The note with it: Klebsiella pneumoniae, 3 h, 50 μM final drug concentration.
The next assay concerns P. aeruginosa. Format: cell-based, Pseudomonas aeruginosa. The following applies: Pseudomonas aeruginosa, 3 h, 50 μM final drug concentration.
The next assay relates to E. coli. Format: cell-based, Escherichia coli. The note with it: Escherichia coli, 3 h, 50 μM final drug concentration.
Another assay relates to E. cloacae. Type of assay: cell-based, Enterobacter cloacae. The note with it: Enterobacter cloacae, 3 h, 50 μM final drug concentration.
The test system of assay [2] is A. baumannii strain 98-37-09. Type of assay: cell-based, Acinetobacter baumannii. The following applies: Acinetobacter baumannii, 983709, 3 h, 50 μM final drug concentration.
For another assay, the system named is E. faecium. Format: cell-based, Enterococcus faecium. The following applies: Enterococcus faecium, 3 h, 50 μM final drug concentration.
Setting [3] is: planktonic, cutoff for positive 3-fold increase, read-out: AK-based Prestwick Library Screening Results, S. aureus (fold increase in extracellular AK activity).
[4] abbreviates: planktonic, cutoff for positive 3-fold increase, read-out: AK-based Prestwick Library Screening Results, K. pneumoniae (fold increase in extracellular AK activity).
Where [5] appears, read: planktonic, cutoff for positive 3-fold increase, read-out: AK-based Prestwick Library Screening Results, P. aeruginosa (fold increase in extracellular AK activity).
Setting [6] is: planktonic, cutoff for positive 3-fold increase, read-out: AK-based Prestwick Library Screening Results, E. coli (fold increase in extracellular AK activity).
The mark [7] stands for this setting: planktonic, cutoff for positive 3-fold increase, read-out: AK-based Prestwick Library Screening Results, E. cloacae (fold increase in extracellular AK activity).
The mark [8] stands for this setting: planktonic, cutoff for positive 3-fold increase, read-out: AK-based Prestwick Library Screening Results, A. baumannii (fold increase in extracellular AK activity).
Where [9] appears, read: planktonic, cutoff for positive 3-fold increase, read-out: AK-based Prestwick Library Screening Results, E. faecium (fold increase in extracellular AK activity).
[10] abbreviates: cutoff for positive-scoring molecules 3-fold increase, read-out: AK-based Prestwick Library Screening Results, S. aureus (fold increase in extracellular AK activity).
Setting [11] is: cutoff for positive-scoring molecules 3-fold increase, read-out: AK-based Prestwick Library Screening Results, K. pneumoniae (fold increase in extracellular AK activity).
Where [12] appears, read: cutoff for positive-scoring molecules 3-fold increase, read-out: AK-based Prestwick Library Screening Results, P. aeruginosa (fold increase in extracellular AK activity).
Setting [13] is: cutoff for positive-scoring molecules 3-fold increase, read-out: AK-based Prestwick Library Screening Results, E. coli (fold increase in extracellular AK activity).
The mark [14] stands for this setting: cutoff for positive-scoring molecules 3-fold increase, read-out: AK-based Prestwick Library Screening Results, E. cloacae (fold increase in extracellular AK activity).
The mark [15] stands for this setting: cutoff for positive-scoring molecules 3-fold increase, read-out: AK-based Prestwick Library Screening Results, A. baumannii (fold increase in extracellular AK activity).
Where [16] appears, read: cutoff for positive-scoring molecules 3-fold increase, read-out: AK-based Prestwick Library Screening Results, E. faecium (fold increase in extracellular AK activity).

Turning to `CN/C(=N/CCSCc1nc[nH]c1C)NC#N` [Cimetidine], the fold induction at 50 µM was found to be 0.8 in assay [1] (384-well format, cutoff for positive-scoring molecules 3-fold increase, read-out: AK-based Prestwick Library Screening Results, S. aureus (increase in extracellular AK activity)); 0.7 in the assay with K. pneumoniae (384-well format, cutoff for positive-scoring molecules 3-fold increase, read-out: AK-based Prestwick Library Screening Results, K. pneumoniae (increase in extracellular AK activity)); 0.8 in the assay on P. aeruginosa (384-well format, cutoff for positive-scoring molecules 3-fold increase, read-out: AK-based Prestwick Library Screening Results, P. aeruginosa (increase in extracellular AK activity)); 0.9 with E. coli (384-well format, cutoff for positive-scoring molecules 3-fold increase, read-out: AK-based Prestwick Library Screening Results, E. coli (increase in extracellular AK activity)); 1 in the assay with E. cloacae (384-well format, cutoff for positive-scoring molecules 3-fold increase, read-out: AK-based Prestwick Library Screening Results, E. cloacae (increase in extracellular AK activity)); 0.8 in assay [2] (384-well format, cutoff for positive-scoring molecules 3-fold increase, read-out: AK-based Prestwick Library Screening Results, A. baumannii (increase in extracellular AK activity)). Moreover, the fold induction at 50 µM with E. faecium (384-well format, cutoff for positive-scoring molecules 3-fold increase, read-out: AK-based Prestwick Library Screening Results, E. faecium (increase in extracellular AK activity)) came to 0.9.
For `C=C[C@H]1C[N@@]2CC[C@H]1C[C@@H]2[C@@H](O)c1ccnc2ccccc12` [Cinchonine], the fold induction at 50 µM in assay [1] (setting [3]) was 1.6; in the assay on K. pneumoniae (setting [4]) it was 1; in the assay with P. aeruginosa (setting [5]), 1.1; with E. coli (setting [6]), 1.2; in the assay on E. cloacae (setting [7]), 1.5; in assay [2] (setting [8]), 1.1. Also, the fold induction at 50 µM in the assay on E. faecium (setting [9]) was determined as 1.1.
`CCn1nc(C(=O)O)c(=O)c2cc3c(cc21)OCO3` [Cinoxacin]: the fold induction at 50 µM in assay [1] (setting [10]) stood at 1.3; with K. pneumoniae (setting [11]), 2.1; with P. aeruginosa (setting [12]), 1.2; in the assay on E. coli (setting [13]), 10.3; in the assay on E. cloacae (setting [14]), 1.4; in assay [2] (setting [15]), 1.3. In the assay with E. faecium (setting [16]), the fold induction at 50 µM was determined as 1.1.
Take `CC(C)(Oc1ccc(C2CC2(Cl)Cl)cc1)C(=O)O` (centres unmarked) [Ciprofibrate]: the fold induction at 50 µM was 0.7 in assay [1] (planktonic S. aureus, positive cutoff 3-fold increase, read-out: AK-based Prestwick library screening result, S. aureus (fold increase in extracellular AK activity)); 0.8 in the assay with K. pneumoniae (planktonic K. pneumoniae, positive cutoff 3-fold increase, read-out: AK-based Prestwick library screening result, K. pneumoniae (fold increase in extracellular AK activity)); 0.7 in the assay on P. aeruginosa (planktonic P. aeruginosa, positive cutoff 3-fold increase, read-out: AK-based Prestwick library screening result, P. aeruginosa (fold increase in extracellular AK activity)); 0.8 in the assay with E. coli (planktonic E. coli, positive cutoff 3-fold increase, read-out: AK-based Prestwick library screening result, E. coli (fold increase in extracellular AK activity)); 1.2 with E. cloacae (planktonic E. cloacae, positive cutoff 3-fold increase, read-out: AK-based Prestwick library screening result, E. cloacae (fold increase in extracellular AK activity)); 0.8 in assay [2] (planktonic A. baumannii, positive cutoff 3-fold increase, read-out: AK-based Prestwick library screening result, A. baumannii (fold increase in extracellular AK activity)). Moreover, the fold induction at 50 µM in the assay on E. faecium (planktonic E. faecium, positive cutoff 3-fold increase, read-out: AK-based Prestwick library screening result, E. faecium (fold increase in extracellular AK activity)) is 0.9.
For `COc1cc(N)c(Cl)cc1C(=O)NC1CCN(CCCOc2ccc(F)cc2)CC1OC` (centres unmarked) [Cisapride], the fold induction at 50 µM in assay [1] (planktonic S. aureus, cutoff for positive-scoring molecules 3-fold increase, read-out: AK-based Prestwick Library Screening Results, S. aureus (increase in extracellular AK activity)) was 0.6; with K. pneumoniae (planktonic K. pneumoniae, cutoff for positive-scoring molecules 3-fold increase, read-out: AK-based Prestwick Library Screening Results, K. pneumoniae (increase in extracellular AK activity)) it was 0.7; in the assay on P. aeruginosa (planktonic P. aeruginosa, cutoff for positive-scoring molecules 3-fold increase, read-out: AK-based Prestwick Library Screening Results, P. aeruginosa (increase in extracellular AK activity)), 0.9; in the assay with E. coli (planktonic E. coli, cutoff for positive-scoring molecules 3-fold increase, read-out: AK-based Prestwick Library Screening Results, E. coli (increase in extracellular AK activity)), 0.9; with E. cloacae (planktonic E. cloacae, cutoff for positive-scoring molecules 3-fold increase, read-out: AK-based Prestwick Library Screening Results, E. cloacae (increase in extracellular AK activity)) it was 0.9; in assay [2] (planktonic A. baumannii, cutoff for positive-scoring molecules 3-fold increase, read-out: AK-based Prestwick Library Screening Results, A. baumannii (increase in extracellular AK activity)) it was 1.1. Moreover, the fold induction at 50 µM in the assay on E. faecium (planktonic E. faecium, cutoff for positive-scoring molecules 3-fold increase, read-out: AK-based Prestwick Library Screening Results, E. faecium (increase in extracellular AK activity)) stood at 0.9.
Regarding `CN(C)CCCC1(c2ccc(F)cc2)OCc2cc(C#N)ccc21` (centres unmarked) [Citalopram Hydrobromide], the fold induction at 50 µM in assay [1] (setting [10]) amounted to 1; in the assay with K. pneumoniae (setting [11]), 0.9; with P. aeruginosa (setting [12]), 1.2; in the assay with E. coli (setting [13]), 1; in the assay on E. cloacae (setting [14]) it was 1.5; in assay [2] (setting [15]) it was 0.9. Moreover, the fold induction at 50 µM with E. faecium (setting [16]) was 1.
In the case of `COc1cc(N)c(Cl)cc1C(=O)NC1CCN(Cc2ccccc2)CC1` [Clebopride maleate], the fold induction at 50 µM in assay [1] (setting [3]) came out at 1.2; in the assay on K. pneumoniae (setting [4]), 1; in the assay with P. aeruginosa (setting [5]), 0.9; in the assay on E. coli (setting [6]), 1; in the assay on E. cloacae (setting [7]), 1.6; in assay [2] (setting [8]), 1. Besides, in the assay with E. faecium (setting [9]), the fold induction at 50 µM worked out at 1.1.
In the case of `Clc1ccc(Cn2c(CN3CCCC3)nc3ccccc32)cc1` [Clemizole hydrochloride], the fold induction at 50 µM came out at 1.6 in assay [1] (planktonic S. aureus, 384-well, cutoff for positive-scoring molecules 3-fold increase, read-out: AK-based Prestwick Library Screening Results: S. aureus (increase in extracellular AK activity)); 1 with K. pneumoniae (planktonic K. pneumoniae, 384-well, cutoff for positive-scoring molecules 3-fold increase, read-out: AK-based Prestwick Library Screening Results: K. pneumoniae (increase in extracellular AK activity)); 1.2 with P. aeruginosa (planktonic P. aeruginosa, 384-well, cutoff for positive-scoring molecules 3-fold increase, read-out: AK-based Prestwick Library Screening Results: P. aeruginosa (increase in extracellular AK activity)); 1.2 with E. coli (planktonic E. coli, 384-well, cutoff for positive-scoring molecules 3-fold increase, read-out: AK-based Prestwick Library Screening Results: E. coli (increase in extracellular AK activity)); 1.4 in the assay on E. cloacae (planktonic E. cloacae, 384-well, cutoff for positive-scoring molecules 3-fold increase, read-out: AK-based Prestwick Library Screening Results: E. cloacae (increase in extracellular AK activity)); 1.6 in assay [2] (planktonic A. baumannii, 384-well, cutoff for positive-scoring molecules 3-fold increase, read-out: AK-based Prestwick Library Screening Results: A. baumannii (increase in extracellular AK activity)). In the assay with E. faecium (planktonic E. faecium, 384-well, cutoff for positive-scoring molecules 3-fold increase, read-out: AK-based Prestwick Library Screening Results: E. faecium (increase in extracellular AK activity)), the fold induction at 50 µM is 1.2.
